Experiments:
HEK293 cells [1] = assay: Immunofluorescence of mTOR and LAMP2 in HEK293 cells; assay type: cell-based, human; details: amino acid-deprived HEK293; 100 μM for 1 h
Description: Cells were grown on poly-L-lysine (Sigma) coated 4 well chamber slides, fixed with 4% paraformaldehyde for 15 min at 37° C., then washed with glycine-PBS and permeablized with 0.3% Triton X-100 for 10 min. After blocking with 3% BSA in PBS, cells were stained for mTOR and LAMP2. Images were obtained by confocal microscope.

p38γ = target: T1, p38γ (Homo sapiens, UniProt P53778); assay: In vitro kinase assay; assay type: biochemical
T1 construct: purchased Abcam ab125651
T1 sequence (P53778 1-367): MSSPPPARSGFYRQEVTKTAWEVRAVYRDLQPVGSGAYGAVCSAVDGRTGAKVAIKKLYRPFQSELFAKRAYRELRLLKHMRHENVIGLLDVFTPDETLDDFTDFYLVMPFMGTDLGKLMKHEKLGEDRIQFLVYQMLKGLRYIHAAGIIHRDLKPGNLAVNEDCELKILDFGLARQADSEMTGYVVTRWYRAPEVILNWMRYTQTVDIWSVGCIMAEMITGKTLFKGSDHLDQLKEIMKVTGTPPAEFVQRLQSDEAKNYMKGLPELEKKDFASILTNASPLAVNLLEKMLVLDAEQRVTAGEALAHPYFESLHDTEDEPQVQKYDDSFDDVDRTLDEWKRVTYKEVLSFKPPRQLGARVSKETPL
Description: 400 ng of recombinant p62 (Abcam, ab95320) and 200 ng of recombinant p38γ (Abcam, ab125651) were incubated in a kinase assay buffer [25 mM MOPS (pH 7.2), 12.5 mM beta-glycerol-phosphate, 25 mM MgCl2, 5 mM EGTA, 2 mM EDTA and 1 mM DTT] for 15 min on ice.

mTORC2 = target: T2, mTORC2 (Homo sapiens, UniProt P42345); assay: mTORC2 kinase activity assay; assay type: biochemical
T2 construct: expressed in transfected cells; host or cells: HEK293
Description: HEK293 cells were transfected with 1 μg of HA Rictor and 0.5 μg of Flag mTOR for mTORC2 activity assay, lysed with 0.3% CHAPS-containing lysis buffer, sonicated and centrifuged at 20,000 g for 15 min at 4° C., and the supernatant was incubated with 2 μg of anti-HA antibody at 4° C. for overnight under gentle agitation. Immunocomplexes were then collected with protein A-Sepharose beads (RepliGen, Needham, Mass.) at 4° C. for 2 h and washed three times with 0.3% CHAPS-containing lysis buffer. […] Kinase reaction was started by adding 100 μM ATP for 15 min at 37° C. and stopped by adding 5× Laemmli buffer.

HEK293 cells [2] = assay: siRNA knock-down in HEK293 cells, ImP-induced signaling; assay type: cell-based, human; details: HEK293 transfected with control or p38δ/p38γ siRNA
Description: (§1) HEK293 cells (ATCC CRL-1573) were grown and maintained in high-glucose (4.5 g/l glucose) DMEM with 10% (v/v) FBS. All HEK293 cell experiments were performed in serum-starved and amino acid-deprived conditions. 24 h after transfection (with plasmids or siRNA as indicated), HEK293 cells cultured in poly-L-lysine-coated 60 mm dishes were rinsed twice with DMEM without FBS and incubated in serum-free DMEM for 18 h. HEK293 cells were then washed once with EBSS and incubated in EBSS for 1 h.
FLAG mTOR and HA Raptor were kindly provided by Dr Sung Ho Ryu (Pohang University of Science and Technology, Pohang, South Korea). Myc-Rag GTPases constructs were gifts from Dr Do-Hyung Kim (University of Minnesota, Minn., USA). AIIStars negative control siRNA, p38δ siRNA1 (Hs_MAPK13_5 targeting […] (SEQ ID NO: 15)), p38δ siRNA2 (Hs_MAPK13_6 targeting […] (SEQ ID NO: 16)), p38γ siRNA1 (Hs_MAPK12_5 targeting […] (SEQ ID NO: 17)), p38γ siRNA2 (Hs_MAPK12_8 targeting […] (SEQ ID NO: 18)), p38α siRNA (Hs_MAPK14_5 targeting […] (SEQ ID NO: 21)), p38β siRNA (Hs_MAPK11_6 targeting […] (SEQ ID NO: 22)), S6K1 siRNA (Hs_RPS6KB1_5 targeting […] (SEQ ID NO: 23)) and Raptor siRNA (Hs_RPTOR_1 targeting […] (SEQ ID NO: 24)) (Qiagen, Valencia, Calif.) were transfected into HEK293 cells using Lipofectamin 2000 according to the manufacturer's instructions.

[3] = tested on: insulin signaling components; assay: Immunoblot of liver lysates from GF mice; assay type: in vivo, mouse; details: 3-day treatment
Description: An intraperitoneal glucose tolerance test (using 1 g glucose per kg body weight) was then performed after a 4 h fast. Blood glucose levels were measured from tail blood using HemoCue201+analyzer (HemoCue, Angelholm, Sweden). Liver and plasma samples were collected after a 4 h fast. Mice were under isoflurane anesthesia and killed by cervical dislocation. Fresh liver was taken and snap-frozen in liquid nitrogen and stored at −80° C. until protein extraction.
(§2) Snap-frozen liver and harvested cells were lysed in buffer containing 50 mM Tris-HCl (pH 7.4), 150 mM NaCl, 1 mM EDTA, 1 mM Na3VO4, 20 mM NaF, 10 mM glycerophosphate, 1 mM PMSF, 10% glycerol, 1% Triton X-100 and protease inhibitor cocktail. For immunoprecipitation, the cell lysates were obtained in 0.3% CHAPS-containing lysis buffer, sonicated and centrifuged at 20,000 g for 15 min at 4° C., and the supernatant was incubated with 20 μl of anti-FLAG beads (Sigma) at 4° C. for 4 h under gentle agitation.

HEK293 cells [4] = assay: Signaling in HEK293 cells (immunoblot); assay type: cell-based, human
Description: as §2
as §1, with “All HEK293 cell experiments were performed in serum-starved and amino acid-deprived conditions.” left out

mTORC1 = assay: mTOR modification in mTORC1 (Raptor immunoprecipitation), HEK293; assay type: cell-based, human
Description: as §2

O=C(O)CCc1cnc[nH]1 [imidazole propionate]
lysosomal localization of mTOR (HEK293 cells [1]): induced
p62 phosphorylation (T269 and S272) by p38γ (p38γ; recombinant p38γ and p62, ATP 50 μM): enhanced
p38γ autophosphorylation (p38γ; together with ATP): induced
in vitro mTORC2 kinase activity towards Akt (mTORC2): not altered
DEPTOR level (HEK293 cells [2]): not affected
Akt phosphorylation, either S473 or T308, in liver [3]: no reduction
S6K1 phosphorylation in the liver [3]: increased
mTORC1 S2481 autophosphorylation in the liver [3]: without affecting
hepatic levels of IRS1 and IRS2 ([3]; 500 μg twice per day): reduced
hepatic levels of the insulin receptor (IR) ([3]; 500 μg twice per day): did not affect
S6K1 phosphorylation (HEK293 cells [4]; HEK293, 100 μM for 1 h): induced
basal activation of Akt (HEK293 cells [4]; HEK293, 8 h pretreatment): increased
responsiveness of Akt S473 to insulin (HEK293 cells [4]; HEK293, 8 h pretreatment): reduced
lowest concentration with p62 phosphorylation activation (HEK293 cells [4]; HEK293, absence of amino acids): 10 nM
p62 phosphorylation (HEK293 cells [4]; HEK293, absence of amino acids, 1 and 2 h): concentration- and time-dependent increase
Akt phosphorylation (HEK293 cells [4]; HEK293, compared with amino acids): induced
time to mTORC1 activation (HEK293 cells [4]; absence of amino acids): ≥ 30 min
IRS1 S636/S639 phosphorylation (HEK293 cells [4]; amino acid-deprived HEK293, 2 h): induced
IRS1 levels (HEK293 cells [4]; amino acid-deprived HEK293, 8 h): dramatically reduced
IRS1 protein levels (HEK293 cells [4]; amino acid-deprived cells, up to 2 h): not reduced
time to S6K1 phosphorylation (HEK293 cells [4]; presence of amino acids): ≤ 30 min
modulation of mTORC1 (mTORC1; HEK293, 2 h incubation): specifically modulated
mTOR S2448 phosphorylation in mTORC1 (mTORC1; Raptor immunoprecipitation): strongly induced
mTOR S2481 phosphorylation in mTORC1 (mTORC1; Raptor immunoprecipitation): not

Reference: patent US20190369122A1, “METABOLIC DISORDERS” (priority 2016, published 2019)
